In the oligonucleotide strings, read from the 5' end, every base follows the letter of its sugar. An asterisk marks phosphorothioate; unmarked linkages are phosphodiester. Other units and linkages are bracketed, terminal groups are in braces. A string of capitals states the bases alone. e = 2'-O-(2-methoxyethyl) (MOE); [5mC] = 5-methylcytosine; d = 2'-deoxy (DNA)
system: human Factor 7 mRNA; assay: Inhibition of human Factor 7 mRNA by 2-10-2 MOE shortmers in HepB3 cells, electroporation, 1,000 nM; type: cell-based; settings: electroporation, 1,000 nM oligonucleotide, approximately 24 hours, relative to untreated control cells
Text: Short antisense oligonucleotides (shortmers) were designed to target a Factor 7 nucleic acid. The shortmers in Table 17 were designed as 2-10-2 MOE gapmers. The gapmers are 14 nucleotides in length, wherein the central gap segment is comprised of 10 2′-deoxynucleotides and is flanked on both sides (in the 5′ and 3′ directions) by wings comprising 2 nucleotides each. Each nucleotide in the 5′ wing segment and each nucleotide in the 3′ wing segment has a 2′-MOE modification. The internucleoside linkages throughout each gapmer are phosphorothioate (P═S) linkages. All cytidine residues throughout each gapmer are 5-methylcytidines.
Shortmers were evaluated for their ability to reduce human Factor 7 mRNA in HepB3 cells and compared with one 5-10-5 chimeric oligonucleotide from Table 16, ISIS 407939. HepB3 cells at a density of 20,000 cells per well in a 96-well plate were transfected using electroporation with 1,000 nM of antisense oligonucleotide. After a treatment period of approximately 24 hours, RNA was isolated from the cells and Factor 7 mRNA levels were measured by real-time RT-PCR, as described herein. Factor 7 mRNA levels were adjusted according to total RNA content as measured by RIBOGREEN®. Results are presented in Table 17 as percent inhibition of Factor 7 mRNA, relative to untreated control cells. ISIS 407939 is the first oligonucleotide in […] to which the shortmers were compared, and is marked by an asterisk (*).

Substance	% inhibition of human Factor 7 mRNA [%]
435828 (antisense eG*eA*d[5mC]*d[5mC]*dT*dG*d[5mC]*d[5mC]*d[5mC]*dA*dT*dT*eT*eT) [compound 435828]	0
435751 (antisense e[5mC]*eT*dT*dG*d[5mC]*d[5mC]*dA*dG*dG*dT*d[5mC]*d[5mC]*eT*e[5mC]) [compound 435751]	28
435480 (antisense eG*eG*dT*d[5mC]*dA*dT*d[5mC]*dA*dG*d[5mC]*d[5mC]*dG*eG*eG) [compound 435480]	53
435820 (antisense e[5mC]*eA*dT*d[5mC]*d[5mC]*dT*dA*dG*dT*d[5mC]*dA*d[5mC]*eT*eG) [compound 435820]	19
435656 (antisense eA*e[5mC]*dT*dG*d[5mC]*dT*d[5mC]*dA*d[5mC]*dA*dG*d[5mC]*e[5mC]*eG) [compound 435656]	58
435503 (antisense eT*eG*dT*dA*d[5mC]*dT*dG*dG*dG*dA*dG*dA*e[5mC]*e[5mC]) [compound 435503]	17
435821 (antisense eA*eG*dT*d[5mC]*dA*dG*dT*dA*d[5mC]*dA*dG*dA*e[5mC]*eA) [compound 435821]	0
435838 (antisense eT*e[5mC]*d[5mC]*dA*dT*dG*dG*dA*d[5mC]*dA*d[5mC]*dT*eA*eA) [compound 435838]	29
435717 (antisense eT*eG*dA*dG*d[5mC]*dT*dT*dT*dT*dG*d[5mC]*dA*eG*e[5mC]) [compound 435717]	0
435830 (antisense eT*eG*dA*dT*dT*dT*dT*dG*d[5mC]*dA*dA*dA*eG*eA) [compound 435830]	0
435693 (antisense eG*eG*d[5mC]*dA*dG*dT*d[5mC]*d[5mC]*dT*dG*dG*dG*eT*e[5mC]) [compound 435693]	43
435800 (antisense eG*eG*dA*d[5mC]*d[5mC]*d[5mC]*dA*dA*dA*dG*dT*dG*eG*eG) [compound 435800]	0
435846 (antisense eT*eG*dG*dA*dG*dA*dG*dA*d[5mC]*d[5mC]*dA*dA*eT*eG) [compound 435846]	7
435694 (antisense e[5mC]*eT*dG*d[5mC]*dA*dG*dG*d[5mC]*dA*dG*dT*d[5mC]*e[5mC]*eT) [compound 435694]	39
435697 (antisense eA*eG*dT*dA*dG*d[5mC]*d[5mC]*dG*dG*d[5mC]*dA*d[5mC]*eA*eG) [compound 435697]	53
435818 (antisense eG*eT*d[5mC]*dA*dT*d[5mC]*d[5mC]*dT*dT*dG*dT*d[5mC]*eT*eG) [compound 435818]	43
435649 (antisense eA*eG*dG*d[5mC]*dA*dG*dA*dA*dG*d[5mC]*dA*dG*eA*eT) [compound 435649]	21
435687 (antisense eA*eT*dG*dG*dT*d[5mC]*dA*dG*dT*dG*dA*dG*eG*eA) [compound 435687]	7
435723 (antisense eG*e[5mC]*d[5mC]*dA*dG*d[5mC]*dA*dG*dA*dT*d[5mC]*dA*e[5mC]*eG) [compound 435723]	68
435782 (antisense e[5mC]*eG*dT*dG*d[5mC]*dG*d[5mC]*dT*d[5mC]*dA*dG*d[5mC]*eT*e[5mC]) [compound 435782]	36
435773 (antisense e[5mC]*eA*dG*dG*dG*dA*dA*d[5mC]*dA*d[5mC]*d[5mC]*d[5mC]*eT*e[5mC]) [compound 435773]	57

Substance	% inhibition of human Factor 7 mRNA [%]
435793 (antisense eT*eG*d[5mC]*dA*dG*dT*dA*dG*d[5mC]*dA*dG*dA*eT*eG) [compound 435793]	27
435815 (antisense e[5mC]*eT*d[5mC]*dT*dT*d[5mC]*d[5mC]*dG*dA*dG*d[5mC]*dA*eG*e[5mC]) [compound 435815]	59
435813 (antisense eG*eG*dA*dT*dG*d[5mC]*dA*d[5mC]*dA*d[5mC]*d[5mC]*dA*eG*eG) [compound 435813]	55
435502 (antisense eG*eT*dA*d[5mC]*dT*dG*dG*dG*dA*dG*dA*d[5mC]*e[5mC]*e[5mC]) [compound 435502]	69
435635 (antisense e[5mC]*eA*dT*dG*dA*dT*dG*dA*dA*dA*dT*d[5mC]*eT*e[5mC]) [compound 435635]	0
435833 (antisense eA*eG*dA*d[5mC]*dA*d[5mC]*dT*dT*dG*dA*dG*dA*eG*e[5mC]) [compound 435833]	24
435720 (antisense eA*eG*dG*d[5mC]*dT*d[5mC]*dA*dG*d[5mC]*dT*dG*dG*eG*e[5mC]) [compound 435720]	16
435677 (antisense eG*eT*dG*d[5mC]*dT*d[5mC]*dG*d[5mC]*d[5mC]*d[5mC]*dA*dG*e[5mC]*eA) [compound 435677]	60
435745 (antisense eG*eG*dG*dA*dG*d[5mC]*dT*dA*d[5mC]*dA*dG*d[5mC]*e[5mC]*eT) [compound 435745]	0
435744 (antisense e[5mC]*eT*dA*d[5mC]*dA*dG*d[5mC]*d[5mC]*dT*d[5mC]*dA*dA*eA*e[5mC]) [compound 435744]	19
435678 (antisense eA*eG*dG*dT*d[5mC]*dG*dT*dG*d[5mC]*dT*d[5mC]*dG*e[5mC]*e[5mC]) [compound 435678]	67
435665 (antisense eA*eG*dG*dT*dA*dT*dT*dT*dT*dT*d[5mC]*d[5mC]*eA*e[5mC]) [compound 435665]	0
435766 (antisense eG*e[5mC]*dA*d[5mC]*d[5mC]*dT*dG*d[5mC]*dA*dG*d[5mC]*d[5mC]*eA*eG) [compound 435766]	51
435851 (antisense eA*e[5mC]*dA*dG*dG*d[5mC]*d[5mC]*dA*dG*dG*d[5mC]*dT*eG*eG) [compound 435851]	0
435810 (antisense e[5mC]*eT*dG*dA*dG*dG*dG*dA*dA*dT*dG*dT*eT*eG) [compound 435810]	1
435750 (antisense e[5mC]*eA*d[5mC]*dT*dG*d[5mC]*dA*dG*d[5mC]*d[5mC]*dA*dG*eG*eG) [compound 435750]	14
435494 (antisense eA*eG*dA*d[5mC]*d[5mC]*d[5mC]*dT*dG*dG*dT*dG*dT*eA*e[5mC]) [compound 435494]	47
435735 (antisense eT*eG*dG*dT*dG*dA*dT*dG*d[5mC]*dT*dT*d[5mC]*eT*eG) [compound 435735]	81
435761 (antisense e[5mC]*eA*dG*dA*dT*dG*dA*dA*dA*dA*d[5mC]*dT*eT*eG) [compound 435761]	5
435714 (antisense eA*e[5mC]*dT*d[5mC]*dG*dA*dT*dG*dT*dA*d[5mC]*dT*eG*eG) [compound 435714]	3

Source: US20120214862A1, “MODULATION OF FACTOR 7 EXPRESSION” (ISIS Pharmaceuticals, Inc., priority 2009, published 2012)
